Measurements published in ChEMBL document CHEMBL1201862, “PubChem BioAssay data set” (2004).
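Values below derive from 48-hour exposures of cells grown in 96-well plates, with endpoints linearly interpolated between the two concentrations bracketing the appropriate inhibition level. At the GI50, growth is halved.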 Calls of active or inactive are those of the source. No stated cut-off is given here; in the data, active = GI50 up to about 1.1 µM and inactive = higher.

Experiments:
Test in all cases: growth of human tumour cells (NCI), 48 h
UACC-257 = test system: UACC-257
MOLT-4 = test system: MOLT-4
Malme-3M = test system: Malme-3M
MDA-MB-435 = test system: MDA-MB-435
RPMI-8226 = test system: RPMI-8226
BT-549 = test system: BT-549
OVCAR-4 = test system: OVCAR-4
MCF7 = test system: MCF7
LOX IMVI = test system: LOX IMVI
EKVX = test system: EKVX
HCC 2998 = test system: HCC 2998
NCI-H23 = test system: NCI-H23
PC-3 = test system: PC-3
RXF 393 = test system: RXF 393
COLO 205 = test system: COLO 205
NCI/ADR-RES = test system: NCI/ADR-RES
OVCAR-5 = test system: OVCAR-5
KM12 = test system: KM12
K562 = test system: K562
TK-10 = test system: TK-10

| Structure (SMILES) | GI50 (UACC-257) | GI50 (MOLT-4) | GI50 (Malme-3M) | GI50 (MDA-MB-435) | GI50 (RPMI-8226) | GI50 (BT-549) | GI50 (OVCAR-4) | GI50 (MCF7) | GI50 (LOX IMVI) | GI50 (EKVX) | GI50 (HCC 2998) | GI50 (NCI-H23) | GI50 (PC-3) | GI50 (RXF 393) | GI50 (COLO 205) | GI50 (NCI/ADR-RES) | GI50 (OVCAR-5) | GI50 (KM12) | GI50 (K562) | GI50 (TK-10) |
| --- | --- | --- | --- | --- | --- | --- | --- | --- | --- | --- | --- | --- | --- | --- | --- | --- | --- | --- | --- | --- |
| CCC1(O)C(=O)OCc2c1cc1n(c2=O)Cc2cc3ccccc3nc2-1 (configuration not stated) | 0.417 µM (active) | < 0.01 µM (active) | 0.431 µM (active) | 0.139 µM (active) | 0.048 µM (active) | 0.211 µM (active) | 0.504 µM (active) | 0.0405 µM (active) | < 0.0152 µM (active) | 0.0869 µM (active) | 0.895 µM (active) | < 0.0188 µM (active) | 2.03 µM (inactive) | 0.073 µM (active) | 0.101 µM (active) | 0.0444 µM (active) | 0.347 µM (active) | 0.221 µM (active) | 0.0455 µM (active) | 6.73 µM (inactive) |
| CC(C)C[C@H](NC(=O)[C@H](Cc1cccc2ccccc12)NC(=O)N1CCOCC1)B(O)O | < 0.01 µM (active) | < 0.01 µM (active) | < 0.01 µM (active) | < 0.01 µM (active) | < 0.01 µM (active) | < 0.01 µM (active) | < 0.01 µM (active) | < 0.0444 µM (active) | < 0.01 µM (active) | 0.0334 µM (active) | < 0.01 µM (active) | < 0.01 µM (active) | < 0.0108 µM (active) | 0.000555 µM (active) | 0.0122 µM (active) | 0.149 µM (active) | < 0.01 µM (active) | < 0.01 µM (active) | < 0.01 µM (active) | < 0.01 µM (active) |
| CNC(=O)N(CCC#N)CCCN(C(=O)N(C)C)c1ccccc1 | > 100 µM (inactive) | > 100 µM (inactive) | > 100 µM (inactive) | > 100 µM (inactive) | > 100 µM (inactive) | > 100 µM (inactive) | > 100 µM (inactive) | > 100 µM (inactive) | > 100 µM (inactive) | > 100 µM (inactive) | > 100 µM (inactive) | > 100 µM (inactive) | > 100 µM (inactive) | > 100 µM (inactive) | > 100 µM (inactive) | > 100 µM (inactive) | > 100 µM (inactive) | > 100 µM (inactive) | > 100 µM (inactive) | > 100 µM (inactive) |
| CSc1cnc2ccccc2c1SC1CN(Cc2ccccc2)c2ccccc2C1=O (configuration not stated) | > 100 µM (inactive) | > 100 µM (inactive) | > 100 µM (inactive) | > 100 µM (inactive) | > 100 µM (inactive) | > 100 µM (inactive) | > 100 µM (inactive) | > 100 µM (inactive) | > 100 µM (inactive) | > 100 µM (inactive) | > 100 µM (inactive) | > 100 µM (inactive) | > 100 µM (inactive) | > 100 µM (inactive) | > 100 µM (inactive) | > 100 µM (inactive) | > 100 µM (inactive) | > 100 µM (inactive) | > 100 µM (inactive) | > 100 µM (inactive) |
| O=C1Nc2nccnc2C(=O)N2CCC[C@@H]12 | > 100 µM (inactive) | > 100 µM (inactive) | > 100 µM (inactive) | > 100 µM (inactive) | > 100 µM (inactive) | > 100 µM (inactive) | > 100 µM (inactive) | > 100 µM (inactive) | > 100 µM (inactive) | > 100 µM (inactive) | > 100 µM (inactive) | > 100 µM (inactive) | > 100 µM (inactive) | > 100 µM (inactive) | > 100 µM (inactive) | > 100 µM (inactive) | > 100 µM (inactive) | > 100 µM (inactive) | > 100 µM (inactive) | > 100 µM (inactive) |
| Oc1c(-c2ccccc2)sc2ccccc12 | 25.2 µM (inactive) | 24.7 µM (inactive) | 22.1 µM (inactive) | 31.6 µM (inactive) | 8.63 µM (inactive) | 28.1 µM (inactive) | 37.9 µM (inactive) | 33.3 µM (inactive) | 15.5 µM (inactive) | 24.9 µM (inactive) | 17.1 µM (inactive) | 20.4 µM (inactive) | 18.7 µM (inactive) | 14.7 µM (inactive) | 13 µM (inactive) | 34 µM (inactive) | 27 µM (inactive) | 25.8 µM (inactive) | 13.7 µM (inactive) | 72.6 µM (inactive) |
| CC(=O)C(N1CCCCC1)C(O)(C(F)(F)F)C(F)(F)F (configuration not stated) | > 100 µM (inactive) | 24 µM (inactive) | > 100 µM (inactive) | > 100 µM (inactive) | 81.8 µM (inactive) | > 100 µM (inactive) | > 100 µM (inactive) | > 100 µM (inactive) | > 100 µM (inactive) | > 100 µM (inactive) | > 100 µM (inactive) | 39.5 µM (inactive) | 36.6 µM (inactive) | 38.5 µM (inactive) | > 100 µM (inactive) | > 100 µM (inactive) | > 100 µM (inactive) | > 100 µM (inactive) | 50.4 µM (inactive) | > 100 µM (inactive) |
| O=C1c2cccc3cccc(c23)C(=O)N1CCCNCCCNCCCCNCCCNCCCN1C(=O)c2cccc3cccc(c23)C1=O | 6.7 µM (inactive) | 0.376 µM (active) | 2.6 µM (inactive) | 2.73 µM (inactive) | 1.33 µM (inactive) | 3.74 µM (inactive) | 2.83 µM (inactive) | 0.449 µM (active) | 2.55 µM (inactive) | 5.48 µM (inactive) | 3.52 µM (inactive) | 2.12 µM (inactive) | 3.23 µM (inactive) | 3.34 µM (inactive) | 1.14 µM (inactive) | 14.7 µM (inactive) | 6.14 µM (inactive) | 2.74 µM (inactive) | 3.25 µM (inactive) | 11.6 µM (inactive) |
| c1ccc(-c2nc(-c3ccccc3SSc3ccccc3-c3nc(-c4ccccc4)nn3-c3ccccc3)n(-c3ccccc3)n2)cc1 | – | > 100 µM (inactive) | > 100 µM (inactive) | > 100 µM (inactive) | > 100 µM (inactive) | > 100 µM (inactive) | – | > 100 µM (inactive) | > 100 µM (inactive) | > 100 µM (inactive) | > 100 µM (inactive) | > 100 µM (inactive) | > 100 µM (inactive) | > 100 µM (inactive) | > 100 µM (inactive) | > 100 µM (inactive) | > 100 µM (inactive) | > 100 µM (inactive) | > 100 µM (inactive) | > 100 µM (inactive) |
| COc1ccc(NC(=S)NNC(=O)c2cc(-c3ccccc3)nc3ccccc23)cc1 | 18.4 µM (inactive) | 19.7 µM (inactive) | 11.2 µM (inactive) | 2.95 µM (inactive) | 11.4 µM (inactive) | 14.1 µM (inactive) | 19.3 µM (inactive) | 0.568 µM (active) | – | – | 12.1 µM (inactive) | 13.6 µM (inactive) | 19.2 µM (inactive) | 13.9 µM (inactive) | 31.8 µM (inactive) | 12.3 µM (inactive) | 20.8 µM (inactive) | 16.1 µM (inactive) | 15.7 µM (inactive) | 15.8 µM (inactive) |
| Cc1ccc(S(=O)(=O)Oc2nc3ccccc3nc2N(S(=O)(=O)c2ccc(C)cc2)S(=O)(=O)c2ccc(C)cc2)cc1 | 61.1 µM (inactive) | 47.4 µM (inactive) | 49.9 µM (inactive) | 35.8 µM (inactive) | 32.1 µM (inactive) | 90.6 µM (inactive) | – | 84.1 µM (inactive) | > 100 µM (inactive) | 30.3 µM (inactive) | 0.625 µM (active) | 47.8 µM (inactive) | 38.4 µM (inactive) | 76.4 µM (inactive) | > 100 µM (inactive) | 40.2 µM (inactive) | 33 µM (inactive) | 33.7 µM (inactive) | > 10 µM (inactive) | 39.8 µM (inactive) |
| CCOC(=O)C1=C(C)N(c2ccc(C)cc2)C2(O)C=CC(O)=C3C(=O)c4ccccc4C(=O)C312 (configuration not stated) | 22.9 µM (inactive) | 0.374 µM (active) | 20.6 µM (inactive) | 36.2 µM (inactive) | 11.1 µM (inactive) | 19.2 µM (inactive) | 25 µM (inactive) | 23.3 µM (inactive) | 25.2 µM (inactive) | 39.3 µM (inactive) | 29.3 µM (inactive) | 38.4 µM (inactive) | 25.1 µM (inactive) | 28.8 µM (inactive) | 32.4 µM (inactive) | 8.24 µM (inactive) | 54.2 µM (inactive) | 35.6 µM (inactive) | – | 44 µM (inactive) |
| Nc1ccc2nc3c(nc2c1)C(=O)c1ccccc1-3 | > 100 µM (inactive) | 20.3 µM (inactive) | > 100 µM (inactive) | > 100 µM (inactive) | > 100 µM (inactive) | > 100 µM (inactive) | > 100 µM (inactive) | > 100 µM (inactive) | – | > 100 µM (inactive) | > 100 µM (inactive) | > 100 µM (inactive) | > 100 µM (inactive) | > 100 µM (inactive) | > 100 µM (inactive) | > 100 µM (inactive) | > 100 µM (inactive) | > 100 µM (inactive) | > 100 µM (inactive) | > 100 µM (inactive) |
| O=C(Nc1ccn(C2CCC(CO)O2)c(=O)n1)c1ccccc1 (configuration not stated) | > 100 µM (inactive) | > 100 µM (inactive) | > 100 µM (inactive) | > 100 µM (inactive) | > 100 µM (inactive) | > 100 µM (inactive) | – | > 100 µM (inactive) | > 100 µM (inactive) | > 100 µM (inactive) | > 100 µM (inactive) | > 100 µM (inactive) | > 100 µM (inactive) | > 100 µM (inactive) | > 100 µM (inactive) | > 100 µM (inactive) | > 100 µM (inactive) | > 100 µM (inactive) | > 100 µM (inactive) | > 100 µM (inactive) |
